In patent US20250051275A1, “PYRROLE DERIVATIVE OR PHARMACEUTICALLY OR SITOLOGICALLY ACCEPTABLE SALTS THEREOF, AND COMPOSITION FOR PREVENTION, AMELIORATION OR TREATMENT OF GASTROINTESTINAL DISORDERS COMPRISING SAME AS ACTIVE INGREDIENT” (HANA PHARM CO., LTD., priority 2021, published 2025):
Read-outs that look alike come from different tables or passages of the source.

What was measured:
[1] = molecular target: proton pump (H+/K+-ATPase) (Sus scrofa (Pig), UniProt P19156); assay: Inhibitory activity on proton pump (H+/K+-ATPase) activity; type: biochemical; conditions: porcine gastric mucosal microsomes, 5 mM KCl, pH 6.4
Procedure: The compounds indicated in the above examples were tested for their inhibitory activity on proton pump (H+/K+-ATPase) activity as follows by applying the method disclosed in the literature. According to the methods of Nobuyuki Takahashi and Yukinori Take [J Pharmacol Exp Ther. 2018 February; 364(2):275-286], the gastric mucosal microsome fraction was isolated from the porcine stomach. The stomach isolated from the pig was washed first with tap water, only the fundus was cut, and then washed (a second time) with cold PBS. The gastric mucosa was separated by scraping, homogenized with 250 mM sucrose solution, and centrifuged at 20,000 g at 4° C. for 30 minutes. Only the supernatant was centrifuged at 115,000 g at 4° C. for 30 minutes, and the precipitate was suspended in 250 mM sucrose solution, added to cover with 7% Ficoll solution, and centrifuged at 135,000 g at 4° C. for 60 minutes. The microsome fraction formed at the interface was recovered and suspended in 250 mM sucrose solution, and centrifuged at 135,000 g, 4° C. for 60 minutes, and the precipitate was dissolved in 0.9% NaCl. The isolated gastric mucosal microsome fraction was quantified by using the Bicinchoninic Acid (BCA) kit (Thermo).
60 μl of enzyme reaction solution (a test compound at a given concentration, […] of gastric mucosal microsomes, 3 mM of MgSO4, 5 mM of KCl, 40 mM of Tris-HCl pH 6.4, and 0.5 mM of adenosine triphosphate) was added to each well of a 96-well plate and reacted at 37° C. for 60 minutes, and 30 μl of 10% SIDS was added to stop the enzyme reaction. 200 μl of detection solution (in which 10% L-ascorbic acid with pH 5.0 was mixed with 35 mM of ammonium molybdate tetrahydrate/15 mM of zinc acetate with pH 5.0 at the ratio of 4:1) was added and reacted at 37° C. for 30 minutes, and the absorbance value was measured at 750 nm by using a microplate reader (MULTISKAN GO, Thermo). The inhibition rate of proton pump activity was expressed as I050, which is 50% inhibition of enzyme activity, by using GraphPad Prism 5. In Table 1 below, an I050 value of 100 nM or less is indicated by +++, an I050 value of 101 to 200 nM is indicated by ++, and an I050 value of above 200 nM is indicated by +.

[2] = tested on: human gastric cancer cells (AGS Cells); assay: MTS assay, inhibition of proliferation of human gastric cancer cells (AGS Cells); type: cell-based; conditions: Homo sapiens, 48 hours
Procedure: To examine the effect of inhibiting the proliferation of the compounds indicated in the examples of the present invention on human gastric cancer cells (AGS Cells), MTS Assay experiments were in vitro performed. AGS cells were cultured in a 5% CO2 incubator at 37° C. by using RPMI 1640 medium containing 1% penicillin-streptomycin and 10% fetal bovine serum. The cells in culture were separated with using 0.25% Trypsin-0.02% EDTA every 3 to 4 days and subcultured.
For the experiment, the cultured cells were treated with 0.25% Trypsin-0.02% EDTA solution, the suspended cells were centrifuged at 1,200 rpm for 5 minutes, the supernatant was discarded, a culture medium was added thereto, and a cell suspension was made with the culture medium. Using a hemocytometer, 10,000 cells per well were dispensed into 96-well plates and cultured. After 24 hours, when the cells attached to the plate, the culture medium was discarded, and the cells were treated with new culture media prepared by concentration (test concentrations: 500 μm, 250 μm, 125 μm, 63 μm, 31 μm, 16 μm, 8 μm, 4 μm, and 2 μm) and cultured in a CO2 incubator for 48 hours. After treating with an MTS solution, the cells were incubated in a CO2 incubator for 1 hour, and the absorbance was measured at 490 nm by using a microplate reader device. The cell proliferation inhibition rate was expressed as IC50, which is 50% inhibition of cell proliferation, using GraphPad Prism 5.
In Table 2 below, the IC50 value is indicated as “+++” for 0 to 50 μM, “++” for 51 to 100 μM, and “+” for 101 to 400 μM.

[3] = Storage stability (related substance identification test); type: physicochemical; conditions: for storage stability: stored at −2 to 8° C., in % (unit assumed)
Description: An attempt was made to evaluate the storage stability over time of the compound of Example 7 of the present invention and the compound of Comparative Example 1 (which is the deuterium-unsubstituted form of the compound of Example 7) depending on the presence of deuterium substitution.

[4] = tested on: pH of gastric juice; assay: Pharmacodynamic profile (pH of gastric juice) in beagles after histamine; type: in vivo, beagle dogs; conditions: beagle
Procedure: A total of 18 male beagle dogs (Marshall Beagle, Beijing) with an average weight of 9 to 11 kg were obtained, acclimatized, and distributed into a total of 6 groups, 3 dogs per test group. During the entire experiment, all beagle dogs were supplied with standardized solid food and water. The breeding room was kept under controlled and monitored conditions, while maintaining a temperature of 18° C. to 26° C., a humidity of 40% to 70%, and a light-dark cycle of 12 hours-12 hours.
The test group consisted of beagle dogs that were orally administered the vehicle as the vehicle group, beagle dogs that were orally administered control drug 1 (vonoprazan) as the comparison group, and administration group was beagle dogs orally administered with Example 7.
To measure the neutralizing power of gastric acid for drug efficacy evaluation, each dose of the compound was administered to each group. Then, histamine dihydrochloride at 0.03 mg/kg was administered subcutaneously 1, 3, 6, 24, and 48 hours after compound administration. The pH of the gastric juice was measured 0, 2.5, 4.5, 7.5, 25.5, and 49.5 hours after compound administration.

Sequence of proton pump (H+/K+-ATPase) (P19156 2-1034): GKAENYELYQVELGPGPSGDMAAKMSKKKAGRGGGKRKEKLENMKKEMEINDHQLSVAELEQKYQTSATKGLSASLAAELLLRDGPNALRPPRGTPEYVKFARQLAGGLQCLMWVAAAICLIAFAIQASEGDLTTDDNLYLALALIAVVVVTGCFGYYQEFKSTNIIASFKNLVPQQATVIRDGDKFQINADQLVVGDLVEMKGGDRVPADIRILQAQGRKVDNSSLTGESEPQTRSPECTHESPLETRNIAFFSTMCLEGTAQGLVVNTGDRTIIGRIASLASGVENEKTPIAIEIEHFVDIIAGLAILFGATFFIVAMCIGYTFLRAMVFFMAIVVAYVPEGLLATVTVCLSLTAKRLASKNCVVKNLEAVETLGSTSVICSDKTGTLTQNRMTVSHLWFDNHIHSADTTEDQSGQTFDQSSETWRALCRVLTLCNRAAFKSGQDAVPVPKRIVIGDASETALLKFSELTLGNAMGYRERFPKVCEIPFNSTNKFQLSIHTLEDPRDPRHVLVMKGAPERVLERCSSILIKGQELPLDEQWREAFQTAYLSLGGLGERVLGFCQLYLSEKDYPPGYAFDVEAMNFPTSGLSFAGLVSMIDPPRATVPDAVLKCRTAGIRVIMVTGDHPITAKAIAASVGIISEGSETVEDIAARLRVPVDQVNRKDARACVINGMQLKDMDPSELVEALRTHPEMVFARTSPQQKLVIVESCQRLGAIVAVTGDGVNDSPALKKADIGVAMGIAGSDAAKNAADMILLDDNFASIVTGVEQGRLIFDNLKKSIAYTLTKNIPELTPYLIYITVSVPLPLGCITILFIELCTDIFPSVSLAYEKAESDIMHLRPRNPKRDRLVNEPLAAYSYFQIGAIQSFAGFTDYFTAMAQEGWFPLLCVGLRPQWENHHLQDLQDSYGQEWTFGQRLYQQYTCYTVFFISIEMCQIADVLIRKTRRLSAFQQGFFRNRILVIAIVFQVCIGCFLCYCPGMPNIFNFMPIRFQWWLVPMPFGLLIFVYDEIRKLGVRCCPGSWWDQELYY
Sequence of proton pump (H+/K+-ATPase) (P18434 whole entry partner): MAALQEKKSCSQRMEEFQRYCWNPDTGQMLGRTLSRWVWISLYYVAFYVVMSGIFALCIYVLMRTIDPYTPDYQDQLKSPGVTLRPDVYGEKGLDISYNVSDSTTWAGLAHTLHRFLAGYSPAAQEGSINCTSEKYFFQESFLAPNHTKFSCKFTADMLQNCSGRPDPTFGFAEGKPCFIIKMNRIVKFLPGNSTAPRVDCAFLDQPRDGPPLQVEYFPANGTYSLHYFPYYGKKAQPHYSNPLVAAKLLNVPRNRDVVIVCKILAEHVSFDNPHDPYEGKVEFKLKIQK

[2H]C([2H])([2H])NCc1cc(-c2ccccc2F)n(S(=O)(=O)c2ccc(F)cc2)c1 [Example 7, N-((5-(2-fluorophenyl)-1-((4-fluorophenyl)sulfonyl)-1H-pyrrol-3-yl)methyl)methan-d3-amine]
IC50 ([1]; read-out: Proton pump inhibitory activity (IC50)): 25 nM | IC50 ([1]; read-out: Proton pump inhibitory activity (IC50, nM), class symbol): ≤ 100 nM | IC50 ([2]; read-out: Proliferation inhibitory effect of gastric cancer cells (IC50)): 35.3 µM | IC50 ([2]; read-out: Proliferation inhibitory effect of gastric cancer cells (IC50, μM), class symbol): < 50 µM | storage stability, Results ([3]; stored at −2 to 8° C. for 3 months): Stable | storage stability ([3]; 1st week): 98.33 | storage stability ([3]; 2nd week): 98.11 | storage stability ([3]; 3 months): 98.9 | storage stability ([3]; 3rd week): 98.11 | storage stability ([3]; 4th week): 98.20 | storage stability ([3]; Initial): 98.38 | Average pH of gastric juice ([4]; oral 0.1 mg/kg, 0 h): 6.8 | Average pH of gastric juice ([4]; oral 0.1 mg/kg, 2.5 h): 3.3 | Average pH of gastric juice ([4]; oral 0.1 mg/kg, 4.5 h): 6.5 | Average pH of gastric juice ([4]; oral 0.1 mg/kg, 7.5 h): 6.0 | Average pH of gastric juice ([4]; oral 0.1 mg/kg, 25.5 h): 2.7 | Average pH of gastric juice ([4]; oral 0.1 mg/kg, 49.5 h): 2.4 | Average pH of gastric juice ([4]; oral 0.3 mg/kg, 0 h): 7.2 | Average pH of gastric juice ([4]; oral 0.3 mg/kg, 2.5 h): 6.7 | Average pH of gastric juice ([4]; oral 0.3 mg/kg, 4.5 h): 7.0 | Average pH of gastric juice ([4]; oral 0.3 mg/kg, 7.5 h): 6.5 | Average pH of gastric juice ([4]; oral 0.3 mg/kg, 25.5 h): 2.3 | Average pH of gastric juice ([4]; oral 0.3 mg/kg, 49.5 h): 2.8 | Average pH of gastric juice ([4]; oral 1 mg/kg, 0 h): 5.7 | Average pH of gastric juice ([4]; oral 1 mg/kg, 2.5 h): 7.2 | Average pH of gastric juice ([4]; oral 1 mg/kg, 4.5 h): 6.7 | Average pH of gastric juice ([4]; oral 1 mg/kg, 7.5 h): 6.2 | Average pH of gastric juice ([4]; oral 1 mg/kg, 25.5 h): 3.0 | Average pH of gastric juice ([4]; oral 1 mg/kg, 49.5 h): 2.3 | Average pH of gastric juice ([4]; oral 3 mg/kg, 0 h): 6.0 | Average pH of gastric juice ([4]; oral 3 mg/kg, 2.5 h): 7.3 | Average pH of gastric juice ([4]; oral 3 mg/kg, 4.5 h): 7.0 | Average pH of gastric juice ([4]; oral 3 mg/kg, 7.5 h): 6.3 | Average pH of gastric juice ([4]; oral 3 mg/kg, 25.5 h): 6.2 | Average pH of gastric juice ([4]; oral 3 mg/kg, 49.5 h): 3.0
